Source: US20260028334A1, “N-(3-(BENZO[B]THIOPHENE-2-CARBOXAMIDO)-PHENYL)-2,3-DIHYDROBENZO[B][1,4]DIOXINE-6-CARBOXAMIDE DERIVATIVES AND RELATED COMPOUNDS AS LACTATE/ATP PRODUCTION INHIBITORS FOR THE TREATMENT OF CANCER” (WMT Aktiengesellschaft, priority 2022, published 2026)

Legend:
Format in all cases: cell-based
lactate production = test: Lactate production inhibition assay; conditions: summary of Table 1
Text: (§1) Recombinant Lactate Dehydrogenase A (LDHA) was used to convert lactate in tissue culture supernatants to pyruvate, with the concomitant reduction of NAD^+ to NADH. The electron acceptor 1-methoxyphenazine methosulfate (MPMS) was then reduced by the generated NADH, thereby regenerating NAD+. Reduced 1-methoxyphenazine methosulfate is used in turn to reduce Water Soluble Tetrazolium 8 (WST8) to an orange WST8 formazan product. The assay is adapted from the publication “Application of WST-8 based colorimetric NAD(P)H detection for quantitative dehydrogenase assays” described in Chamchoy et al., BMC Biochemistry (2019) 20(1):4.
(§2) Cells were plated at 4,000 per well in 96-well plate in a medium of high glucose DMEM (PAN) supplemented with 10% FBS (PAN), 2 mM glutamine-alanine (PAN), 2 mM pyruvate (Sigma) and 10 mL/L penicillin-streptomycin (PAN) and grown at 37° C. in 0.5% O2, 5% CO2 and 75% humidity. For hypoxia, cells were grown and treated in the Whitley H35 Hypoxystation (Don Whitley Scientific) at 37° C. in 0.5% O2, 5% CO2 and 75% humidity. The next day, cells were induced with test compounds (FIG. 2: compounds of examples 3/16, 3/8, 10 at 10000, 3333, 1111, 370, 123, 41, 14, 5 and 1.5 nM; FIG. 7: compounds of examples 3/16, 3/8, 10 at 41, 14, 4.6 nM and Phenformin at 100, 50, 25, 12.5, 6.25 μM; FIGS. 8C and 8D: compounds of example 3/16, 3/8, 10, 3/19, 30 and 30/2 at 10000, 3333, 1111, 370, 123, 41, 14, 5 and 1.5 nM), as well as with vehicle (DMSO) only, for 48 hours. After this time, the medium was removed from the cells to measure extracellular lactate. To detect extracellular lactate, cell supernatants are diluted 1:5 in assay buffer (0.2 M tris, pH 8.2) by adding 10 μl cell supernatant+40 μl buffer in a 96-well plate. Assay substrate mix is prepared by adding NAD+ (3.75 mM), WST-8 (0.9 mM), MPMS (10 mM) and recombinant LDHA, expressed in E. coli as an N-terminal hexahistidine tagged fusion protein, is added to a final concentration of 0.8 μg/ml in assay buffer. Thereafter, 80 μl of substrate mix is added to 20 μl of diluted cell supernatant in a 96-well flat-bottomed plate and the absorbance at 460 nm determined at one minute intervals over a 30 minute period. A standard curve of known lactate concentrations of 10, 8, 6, 4, 1, 0.5 and 0.25 mM was constructed for each assay plate.

Panc02 and SKOV3 cells = test: Lactate production inhibition assay (FIGS. 8C and 8D); conditions: 48 hours treatment, 1.5 to 10000 nM
Text: as §1, §2

p62 = p62 (Homo sapiens (Human), UniProt Q13501); test: Western Blot analysis of p62; conditions: HeLa cells, normoxic and hypoxic conditions; for p62: 24 hours, 10, 30 and 100 nM, also with Bafilomycin A, FIG. 5
Procedure: (§3) Western Blot analysis was used to detect amounts of specific protein in differently treated cells. Proteins are separated by size, transferred onto a nitrocellulose membrane and incubated with protein specific antibodies. The density of the observed band is proportional to the amount of the specific protein inside the cell.
(§4) Cells were plated at 4×10^6 (for hypoxia) or 3×10^6 (for normoxia) cells per […] plate in medium of high glucose DMEM (PAN) supplemented with 10% FBS (PAN), 2 mM glutamine-alanine (PAN), 2 mM pyruvate (Sigma) and 10 ml/L penicillin-streptomycin (PAN), and grown at 37° C. in […], 5% CO2 and 75% humidity. For hypoxia, cells were grown and treated in the Whitley H35 Hypoxystation (Don Whitley Scientific) at 37° C. in 0.5% O2, 5% CO2 and 75% humidity. Next day, the cells were treated with test compounds (FIG. 4: compounds of example 3/8 and 10 at concentrations 0.1, 0.3 and 1 μM, Bafilomycin A at 20 nM; FIG. 5: compounds of example 3/16, 3/8 and 10 at concentrations 10, 30 and 100 nM, Bafilomycin A at 20 nM), as well as with vehicle (DMSO) only, for 24 h. After 24 hours, the cells were washed with PBS and scraped to collect. The lysate was centrifuged at 2,000 rpm for 3 min at 4° C. The cell pellet was resuspended in 250 μl Lysis Buffer (20 mM Tris pH 7.8, 150 mM NaCl, 0.05% Tween20, 2 mM MgCl2, protease inhibitors (Roche), 1 mM NaF, 1 mM Na3VO4) and sonicated at 50% for 20 sec. The sample was centrifuged at 14,000 rpm for 4 min at 4° C. Protein concentration of the sample was measured using the DC Protein Assay Kit (Biorad, 5000112), 22 μg of protein extract per well was loaded onto a precast SDS page gel (Biorad, 1704273). Proteins were then transferred onto a PVDF-membrane (Biorad, 10026933) using Biorad Trans-Blot Turbo Transfer System. […] The chemiluminescence was measured using chemiluminescent substrate (#34580, Thermo Scientific).

p70-S6K (Thr389) = p70-S6K (Thr389) (Homo sapiens (Human), UniProt P23443); test: Western Blot analysis of p70-S6K phosphorylation; conditions: HeLa cells, 24 hours, 10, 30 and 100 nM, also with Bafilomycin A, normoxic condition, FIG. 5
Procedure: as §3
as §4, with “After 24 hours, the cells were washed with PBS and scraped to collect. The lysate was centrifuged at 2,000 rpm for 3 min at 4° C. The cell pellet was resuspended in 250 μl Lysis Buffer (20 mM Tris pH 7.8, 150 mM NaCl, 0.05% Tween20, 2 mM MgCl2, protease inhibitors (Roche), 1 mM NaF, 1 mM Na3VO4) and sonicated at 50% for 20 sec. The sample was centrifuged at 14,000 rpm for 4 min at 4° C.” left out, “1704273).” for “1704273). Proteins were then transferred onto a PVDF-membrane (Biorad, 10026933) using Biorad Trans-Blot Turbo Transfer System.”

HeLa cells = test: Lactate production inhibition assay, co-treatment with phenformin (FIG. 7); conditions: 48 hours co-treatment of phenformin (6.25-100 μM) with compound at 41, 14, 4.6 nM
Text: as §1
Cells were plated at 4,000 per well in 96-well plate in a medium of high glucose DMEM (PAN) supplemented with 10% FBS (PAN), 2 mM glutamine-alanine (PAN), 2 mM pyruvate (Sigma) and 10 mL/L penicillin-streptomycin (PAN) and grown at 37° C. in 0.5% O2, 5% CO2 and 75% humidity. For hypoxia, cells were grown and treated in the Whitley H35 Hypoxystation (Don Whitley Scientific) at 37° C. in 0.5% O2, 5% CO2 and 75% humidity. […] Thereafter, 80 μl of substrate mix is added to 20 μl of diluted cell supernatant in a 96-well flat-bottomed plate and the absorbance at 460 nm determined at one minute intervals over a 30 minute period. […]

Row | SMILES | activity in inhibiting production of ATP and/or lactate (lactate production) | lactate levels (Panc02 and SKOV3 cells) | p62 protein levels (p62; 24 hours, 0.1, 0.3 and 1 μM, FIG. 4) | p62 (p62) | p70-S6K phosphorylation (Thr389) (p70-S6K (Thr389)) | lactate levels (HeLa cells)
1 | O=C(Nc1ccc(F)c(NC(=O)c2cc3ccc(OCCCN4CCCC4)cc3s2)c1)c1ccc2c(c1)OCCO2 [3/8] | high activity | dose-dependent downregulation | dose-dependent reduction | dose-dependent reduction | dose-dependent induction | downregulation
2 | Cc1ccc(NC(=O)c2ccc3c(c2)OCCO3)cc1NC(=O)c1cc2cccnc2s1 [3/16] | high activity | dose-dependent downregulation | – | dose-dependent reduction | dose-dependent induction | downregulation
